# Data as given in patent US12692254B2, “Benzimidazole inhibitors of PAD enzymes” (BRISTOL-MYERS SQUIBB COMPANY, priority 2018, dated 2026).
# Molecular target: human PAD4 (hPAD4) (Homo sapiens, UniProt Q9UM07)
# Assay: RFMS human PAD4 functional assay (rapid-fire mass spectrum)
# Format: biochemical
# Conditions: 5 nM hPAD4 enzyme, 250 μM BAEE, 50 μM Calcium; 30 min preincubation, 90 min reaction at 37° C.
# Protocol: Compounds of the present invention were assayed as inhibitors of PAD4 using the assay protocol described below.
# RFMS tinman PAD4 Functional Assay:
# Compounds were solubilized in 100% DMSO to achieve a 10 mM compound concentration. Compound stock solutions were stored at RT. A series of dilutions were prepared in DMSO and mixed 8 times with 20 μl, mixing volume. Final top concentration of compound in the assay is 50 μM. […] 1-90 min enzyme/substrate reaction, 30 min reaction with phenyl glyoxal at 37° C. • Stop solution: 40 μl 5% TCA in ACN
# 0.13 μL of compound solution was added to 13 μL of 10 nM PAD4 in assay buffer. After 30 min 13 μl of 500 μM of BAEE was added in 25 mM hepes, pH 7.5, 5 mM NaCl, 1 mM DTT, 0.2 mg/ml BS A, 0.01% CHAPS, 50 μM Calcium, 5 μM TPEN was added and the reaction incubated for 90 min at 37° C. The enzymatic reaction was quenched by addition of 15 μl of 6.1N TCA, 100% Final Concentration is 20%, 35 μl of 8.5 mM phenyl glyoxal (final concentration 4 mM) is then added and the reaction is incubated for 30 min at 37° C.
# After 30 minutes the plates are spun down to remove all precipitate. The enzyme reaction was quenched with an equal volume of methanol containing internal standard (modified citrulline). Samples were loaded onto the Rapid Fire RF300 system (Agilent) wherein they were first sipped for 1000 ms and then directly loaded to a C18 separations cartridge using a mixture of acetonitrile containing 0.01% formic acid for 3000 ms desalting. The flow rate of the mobile phase was 1.5 ml/min.
# The dwell time for each transition was set at 200 ms, and the ESI voltage was used at 5500 with a source temperature of 400° C. Extracted ion peaks for each transition were integrated using the Rapid Fire Integrator software. Peak area of analyte was normalized with internal standard).
# Sequence of human PAD4 (hPAD4) (Q9UM07 whole entry): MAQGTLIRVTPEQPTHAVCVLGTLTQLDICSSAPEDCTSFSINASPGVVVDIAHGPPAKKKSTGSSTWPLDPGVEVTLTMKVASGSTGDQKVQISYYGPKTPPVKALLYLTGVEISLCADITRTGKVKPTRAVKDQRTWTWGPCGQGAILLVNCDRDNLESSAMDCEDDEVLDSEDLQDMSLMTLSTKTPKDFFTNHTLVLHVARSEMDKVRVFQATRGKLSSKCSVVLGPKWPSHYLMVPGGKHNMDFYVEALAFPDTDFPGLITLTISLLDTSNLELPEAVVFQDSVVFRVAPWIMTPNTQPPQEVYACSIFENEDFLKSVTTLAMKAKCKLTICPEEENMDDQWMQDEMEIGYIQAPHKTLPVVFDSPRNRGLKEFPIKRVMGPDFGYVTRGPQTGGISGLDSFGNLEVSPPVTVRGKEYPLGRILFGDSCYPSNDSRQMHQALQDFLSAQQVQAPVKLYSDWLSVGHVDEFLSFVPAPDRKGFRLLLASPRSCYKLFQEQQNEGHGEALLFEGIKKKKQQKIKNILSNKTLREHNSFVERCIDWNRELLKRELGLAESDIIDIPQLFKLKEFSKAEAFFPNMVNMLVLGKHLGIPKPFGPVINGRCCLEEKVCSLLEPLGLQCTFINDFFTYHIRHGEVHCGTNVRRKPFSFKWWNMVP
row,IC50 [nM],Molecule
1,43,"COc1cc(C(=O)N2CC3CCC2[C@@H]3N)cc2nc(-c3cc4ccccc4n3CC3CC3)n(CC3CCS(=O)(=O)C3)c12 (mixture of isomers) [Example 258, rac-((7R)-7-amino-2-azabicyclo[2.2.1]heptan-2-yl)(2-(1-(cyclopropylmethyl)-1H-indol-2-yl)-1-((1,1-dioxidotetrahydrothiophen-3-yl)methyl)-7-methoxy-1H-benzo[d]imidazol-5-yl)methanone]"
2,55,"COc1cc(C(=O)N2CC3CCC2[C@@H]3N)cc2nc(-c3cc4ccccc4n3CC3CC3)n(CC3CC(=O)N(C)C3)c12 (mixture of isomers) [Example 262, 4-({5-[(1R,4R,7R)-7-amino-2-azabicyclo[2.2.1]heptane-2-carbonyl]-2-[1-(cyclopropylmethy!)-1H-indol-2-yl]-7-methoxy-1H-1,3-benzodiazol-1-yl}methyl)-1-methylpyrrolidin-2-one]"
3,649,"COc1cc(C(=O)N2C[C@H](N)C[C@@H](F)C2)cc2nc(-c3cc4ccccc4n3CC3CC3)n(CC3CC(=O)N(C)C3)c12 (mixture of isomers) [Example 281, 4-({5-[(3R,5R)-3-amino-5-fluoropiperidine-1-carbonyl]-2-[1-(cyclopropylmethyl)-1H-indol-2-yl]-7-methoxy-1H-1,3-benzodiazol-1-yl}methyl)-1-methylpyrrolidin-2-one]"
4,99,"COc1cc(C(=O)N2CC3CCC2[C@@H]3N)cc2nc(-c3cc4ccccc4n3CC3CC3)n(CC3CCN(c4ncccn4)C3)c12 (stereo in doubt) [Example 228, (1R,4R,7R)-2-{2-[1-(cyclopropylmethyl)-1H-indol-2-yl]-7-methoxy-1-{[(3S)-1-(pyrimidin-2-yl)pyrrolidin-3-yl]methyl}-1H-1,3-benzodiazole-5-carbonyl}-2-azabicyclo[2.2.1]heptan-7-amine]"
5,203,"COc1cc(C(=O)N2CC3CCC2[C@@H]3N)cc2nc(-c3cc4cccnc4n3CC3CC3)n(CC3CCN(c4ncccn4)C3)c12 (stereo in doubt) [Example 231, (1R,4R,7R)-2-{2-[1-(cyclopropylmethyl)-1H-pyrrolo[2,3-b]pyridin-2-yl]-7-methoxy-1-{[(3S)-1-(pyrimidin-2-yl)pyrrolidin-3-yl]methyl}-1H-1,3-benzodiazole-5-carbonyl}-2-azabicyclo [2.2.1]heptan-7-amine]"
6,332,"COc1cc(C(=O)N2CC3CCC2[C@@H]3N)cc2nc(-c3cc4cccnc4n3CC3CC3)n(CC3CCN(c4ncccn4)C3)c12 (stereo in doubt) [Example 234, (1R,4R,7R)-2-{2-[1-(cyclopropylmethyl)-1H-pyrrolo[2,3-b]pyridin-2-yl]-7-methoxy-1-{[(3R)-1-(pyrimidin-2-yl)pyrrolidin-3-yl]methyl}-1H-1,3-benzodiazole-5-carbonyl}-2-azabicyclo[2.2.1]heptan-7-amine]"
7,94,"COc1cc(C(=O)N2C[C@H]3CC[C@@H]2[C@@H]3N)cc2nc(-c3cc4cccnc4n3CC3CC3)n(CC3CN(c4cncc(C#N)c4)C3)c12 [Example 7, 5-[3-({5-[(1R,4R,7R)-7-amino-2-azabicyclo[2.2.1]heptane-2-carbonyl]-2-[1-(cyclopropylmethyl)-1H-pyrrolo[2,3-b]pyridin-2-yl]-7-methoxy-1H-1,3-benzodiazol-1-yl}methyl)azetidin-1-yl]pyridine-3-carbonitrile]"
8,18,"COc1cc(C(=O)N2C[C@H]3CC[C@@H]2[C@@H]3N)cc2nc(-c3cc4ccc(Cl)cc4n3CC3CC3)n(CC3CN(c4ccnc(C(N)=O)n4)C3)c12 [Example 8, 4-[3-({5-[(1R,4R,7R)-7-amino-2-azabicyclo[2.2.1]heptane-2-carbonyl]-2-[6-chloro-1-(cyclopropylmethyl)-1H-indol-2-yl]-7-methoxy-1H-1,3-benzodiazol-1-yl}methyl)azetidin-1-yl]pyrimidine-2-carboxamide]"

# Second part, the molecule before the results:
row,Molecule,IC50 [nM]
1,"5-(4-((5-((1R,4R,7R)-7-amino-2-azabicyclo[2.2.1]heptane-2-carbonyl)-2-(1-(cyclopropylmethyl)-1H-pyrrolo[2,3-b]pyridin-2-yl)-7-methoxy-1H-benzo[d]imidazol-1-yl)methyl)piperdine-1-carbonyl)pyrimidine-2-carbonitrile [Example 194]",74
2,"6-[(3S)-3-({5-[(1R,4R,7R,)-7- amino-2- azabicyc1o[2.2.1]heptane-2- carbonyl]-7-methoxy-2-{1- methyl-1H-pyrrolo[2,3- b]pyridin-2-yl}-1H-1,3- benzodiazol-1- yl}methyl)pyrrolidin-1- yl]pyrazine-2-carbonitrile [Example 235]",366
3,"COc1cc(C(=O)N2C[C@H]3CC[C@@H]2[C@@H]3N)cc2nc(-c3cc4ccccc4n3CC3CC3)n(CC3CN(c4ccnc(C#N)n4)C3)c12 [Example 1, 4-(3-((5-((1R,4R,7R)-7-amino-2-azabicyclo[2.2.1]heptane-2-carbonyl)-2-(1-(cyclopropylmethyl)-1H-indol-2-yl)-7-methoxy-1H-benzo[d]imidazol-1-yl)methyl)azetidin-1-yl)pyrimidine-2-carbonitrile]",14
4,"COc1ccc2cc(-c3nc4cc(C(=O)N5C[C@H]6CC[C@@H]5[C@@H]6N)cc(OC)c4n3CC3CN(c4ccnc(C#N)n4)C3)n(CC3CC3)c2n1 [Example 2, 4-(3-((5-((1R,4R,7R)-7-amino-2-azabicyclo[2.2.1]heptane-2-carbonyl)-2-(1-(cyclopropylmethyl)-6-methoxy-1H-pyrrolo[2,3-b]pyridin-2-yl)-7-methoxy-1H-benzo[d]imidazol-1-yl)methyl)azetidin-1-yl)pyrimidine-2-carbonitrile]",49
5,"COc1cc(C(=O)N2C[C@H]3CC[C@@H]2[C@@H]3N)cc2nc(-c3cc4cccnc4n3CC3CC3)n(CC3CN(c4cncc(C#N)n4)C3)c12 [Example 3, 6-(3-((5-((1R,4R,7R)-7-amino-2-azabicyclo[2.2.1]heptane-2-carbonyl)-2-(1-(cyclopropylmethyl)-1H-pyrrolo[2,3-b]pyridin-2-yl)-7-methoxy-1H-benzo[d]imidazol-1-yl)methyl)azetidin-1-yl)pyrazine-2-carbonitrile]",55
6,"COc1cc(C(=O)N2C[C@H](N)C[C@@H](F)C2)cc2nc(-c3cc4ccccc4n3CC3CC3)n(CC3CN(c4ccnc(C#N)n4)C3)c12 [Example 4, 4-(3-((5-((3R,5R)-3-amino-5-fluoropiperidine-1-carbonyl)-2-(1-(cyclopropylmethyl)-1H-indol-2-yl)-7-methoxy-1H-benzo[d]imidazol-1-yl)methyl)azetidin-1-yl)pyrimidine-2-carbonitrile]",35
7,"COc1cc(C(=O)N2C[C@H]3CC[C@@H]2[C@@H]3N)cc2nc(-c3cc4cccnc4n3CC3CC3)n(CC3CN(c4ccnc(C#N)n4)C3)c12 [Example 5, 4-[3-({5-[(1R,4R,7R)-7-amino-2-azabicyclo[2.2.1]heptane-2-carbonyl]-2-[1-(cyclopropylmethyl)-1H-pyrrolo[2,3-b]pyridin-2-yl]-7-methoxy-1H-1,3-benzodiazol-1-yl}methyl)azetidin-1-yl]pyrimidine-2-carbonitrile]",51
8,"COc1cc(C(=O)N2C[C@H]3CC[C@@H]2[C@@H]3N)cc2nc(-c3cc4ccccc4n3C)n(CC3CN(c4ccnc(C)n4)C3)c12 [Example 6, ((1R,4R,7R)-7-amino-2-azabicyclo[2.2.1]heptan-2-yl)(7-methoxy-2-(1-methyl-1H-indol-2-yl)-1-((1-(2-methylpyrimidin-4-yl)azetidin-3-yl)methyl)-1H-benzo[d]imidazol-5-yl)methanone]",78
